Source: PMC4051630, “A Comparison of Protein Kinases Inhibitor Screening Methods Using Both Enzymatic Activity and Binding Affinity Determination” (PLoS ONE, 2014)

What was measured:
Test in all cases: Differential Scanning Fluorimetry (DSF) Tm shift
Format in all cases: binding
AKT3 Catalytic Domain = biological target: T1, AKT3 Catalytic Domain (Homo sapiens, UniProt Q9Y243); settings: 2 µM protein, 10 µM inhibitor, average of 3 experiments, each in duplicate
T1 construct: AKT3 (Q9Y243); CD; His-tag; made in house; host or cells: Escherichia coli

[1] = biological target: T2, STK3 Catalytic domain+SARAH (Homo sapiens, UniProt Q13188); settings: 2 µM protein, 10 µM inhibitor, average of 3 experiments, each in duplicate
T2 construct: for 8, we also made a longer version containing one or more additional domains; His-tag; made in house; host or cells: Escherichia coli
T2 sequence (Q13188 1-491): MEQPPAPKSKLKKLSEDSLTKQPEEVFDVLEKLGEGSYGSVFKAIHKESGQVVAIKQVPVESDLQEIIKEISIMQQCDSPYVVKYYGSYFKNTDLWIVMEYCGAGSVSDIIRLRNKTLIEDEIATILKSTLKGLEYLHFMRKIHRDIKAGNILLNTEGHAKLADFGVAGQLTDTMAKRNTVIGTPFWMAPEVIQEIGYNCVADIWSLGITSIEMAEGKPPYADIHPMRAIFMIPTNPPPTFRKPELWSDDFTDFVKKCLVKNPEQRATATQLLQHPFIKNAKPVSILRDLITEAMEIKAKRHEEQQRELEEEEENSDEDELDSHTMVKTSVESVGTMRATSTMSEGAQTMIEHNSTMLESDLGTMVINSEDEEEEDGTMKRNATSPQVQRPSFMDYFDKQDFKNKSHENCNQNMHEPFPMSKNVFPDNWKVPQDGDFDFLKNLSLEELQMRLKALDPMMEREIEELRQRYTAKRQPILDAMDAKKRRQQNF

CDK2 + Cyclin A = biological target: T3, CDK2 + Cyclin A (Homo sapiens, UniProt P24941); settings: CDK2 + Cyclin A; 2 µM protein, 10 µM inhibitor; average of 3 experiments, each in duplicate
T3 construct: CDK2 (P24941); 1–299; His-tag; made in house; host or cells: Escherichia coli

[2] = biological target: T4, PAK4 Catalytic Domain+PBD (Homo sapiens, UniProt O96013); settings: 2 µM protein, 10 µM inhibitor, average of 3 experiments, each in duplicate
T4 construct: for 8, we also made a longer version containing one or more additional domains; His-tag; made in house; host or cells: Escherichia coli

DMPK Catalytic Domain = biological target: T5, DMPK Catalytic Domain (Homo sapiens, UniProt Q09013); settings: 2 µM protein, 10 µM inhibitor, average of 3 experiments, each in duplicate
T5 construct: For all of them, we expressed and purified the catalytic domain separately; His-tag; made in house; host or cells: Escherichia coli
T5 sequence (Q09013 71-339 limits assumed): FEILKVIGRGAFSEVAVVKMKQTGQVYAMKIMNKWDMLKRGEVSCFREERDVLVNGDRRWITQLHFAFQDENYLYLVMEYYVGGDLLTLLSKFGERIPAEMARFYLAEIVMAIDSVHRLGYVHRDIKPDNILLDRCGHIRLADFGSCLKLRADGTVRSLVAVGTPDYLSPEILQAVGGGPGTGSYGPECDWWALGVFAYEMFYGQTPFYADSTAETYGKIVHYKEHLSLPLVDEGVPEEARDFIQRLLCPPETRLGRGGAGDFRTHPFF

FAK2 Catalytic Domain = biological target: T6, FAK2 Catalytic Domain (Homo sapiens, UniProt Q14289); settings: 2 µM protein, 10 µM inhibitor, average of 3 experiments, each in duplicate
T6 construct: For all of them, we expressed and purified the catalytic domain separately; His-tag; made in house; host or cells: Escherichia coli

PAK4 Catalytic Domain = biological target: T7, PAK4 Catalytic Domain (Homo sapiens, UniProt O96013); settings: 2 µM protein, 10 µM inhibitor, average of 3 experiments, each in duplicate
T7 construct: For all of them, we expressed and purified the catalytic domain separately; His-tag; made in house; host or cells: Escherichia coli

CHK2 Catalytic Domain = biological target: T8, CHK2 Catalytic Domain (Homo sapiens, UniProt O96017); settings: 2 µM protein, 10 µM inhibitor, average of 3 experiments, each in duplicate
T8 construct: For all of them, we expressed and purified the catalytic domain separately; His-tag; made in house; host or cells: Escherichia coli

SRC Catalytic Domain = SRC Catalytic Domain (Homo sapiens, UniProt P12931); design: For all of them, we expressed and purified the catalytic domain separately; His-tag; made in house; host or cells: Escherichia coli; settings: 2 µM protein, 10 µM inhibitor, average of 3 experiments, each in duplicate
FES Catalytic Domain = biological target: T9, FES Catalytic Domain (Homo sapiens, UniProt P07332); settings: 2 µM protein, 10 µM inhibitor, average of 3 experiments, each in duplicate
T9 construct: For all of them, we expressed and purified the catalytic domain separately; His-tag; made in house; host or cells: Escherichia coli

[3] = biological target: SRC Catalytic Domain+SH2+SH3 (Homo sapiens, UniProt P12931); settings: 2 µM protein, 10 µM inhibitor, average of 3 experiments, each in duplicate
PAK7 Catalytic Domain = biological target: T10, PAK7 Catalytic Domain (Homo sapiens, UniProt Q9P286); settings: 2 µM protein, 10 µM inhibitor, average of 3 experiments, each in duplicate
T10 construct: For all of them, we expressed and purified the catalytic domain separately; His-tag; made in house; host or cells: Escherichia coli

CDK2 + Cyclin E = biological target: T11, CDK2 + Cyclin E (Homo sapiens, UniProt P24941); settings: CDK2 + Cyclin E; 2 µM protein, 10 µM inhibitor; average of 3 experiments, each in duplicate
T11 construct: CDK2 (P24941); 1–299; His-tag; made in house; host or cells: Escherichia coli

STK3 Catalytic Domain = biological target: T12, STK3 Catalytic Domain (Homo sapiens, UniProt Q13188); settings: 2 µM protein, 10 µM inhibitor, average of 3 experiments, each in duplicate
T12 construct: For all of them, we expressed and purified the catalytic domain separately; His-tag; made in house; host or cells: Escherichia coli
T12 sequence (Q13188 27-278 limits assumed): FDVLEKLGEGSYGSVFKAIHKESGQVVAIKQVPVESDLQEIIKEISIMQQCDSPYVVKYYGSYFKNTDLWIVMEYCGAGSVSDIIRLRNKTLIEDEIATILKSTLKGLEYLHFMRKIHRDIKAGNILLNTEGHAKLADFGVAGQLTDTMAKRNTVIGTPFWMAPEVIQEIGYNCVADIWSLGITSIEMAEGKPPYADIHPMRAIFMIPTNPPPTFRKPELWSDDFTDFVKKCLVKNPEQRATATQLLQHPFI

FES Catalytic Domain+SH2 = biological target: T13, FES Catalytic Domain+SH2 (Homo sapiens, UniProt P07332); settings: 2 µM protein, 10 µM inhibitor, average of 3 experiments, each in duplicate
T13 construct: for 8, we also made a longer version containing one or more additional domains; His-tag; made in house; host or cells: Escherichia coli
T13 sequence (P07332 448-822 limits assumed): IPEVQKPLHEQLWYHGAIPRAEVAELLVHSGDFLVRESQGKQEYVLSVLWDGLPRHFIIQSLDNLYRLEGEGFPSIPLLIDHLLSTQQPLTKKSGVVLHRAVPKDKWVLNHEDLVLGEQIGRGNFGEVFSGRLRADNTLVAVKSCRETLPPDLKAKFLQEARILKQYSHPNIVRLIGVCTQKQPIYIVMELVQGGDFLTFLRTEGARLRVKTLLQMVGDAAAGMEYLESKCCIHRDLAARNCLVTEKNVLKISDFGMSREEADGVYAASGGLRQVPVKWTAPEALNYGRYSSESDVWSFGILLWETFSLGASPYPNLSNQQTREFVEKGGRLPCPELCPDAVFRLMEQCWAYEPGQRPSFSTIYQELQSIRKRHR

T6 sequence (Q14289 425-683 limits assumed): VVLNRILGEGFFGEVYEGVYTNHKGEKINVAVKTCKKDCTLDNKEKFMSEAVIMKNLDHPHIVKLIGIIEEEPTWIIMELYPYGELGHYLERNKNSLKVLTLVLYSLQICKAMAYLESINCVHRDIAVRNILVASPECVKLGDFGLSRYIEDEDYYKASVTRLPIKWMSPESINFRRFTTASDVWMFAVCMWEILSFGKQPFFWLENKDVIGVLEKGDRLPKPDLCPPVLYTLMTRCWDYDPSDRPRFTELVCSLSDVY
T1 sequence (Q9Y243 122-479): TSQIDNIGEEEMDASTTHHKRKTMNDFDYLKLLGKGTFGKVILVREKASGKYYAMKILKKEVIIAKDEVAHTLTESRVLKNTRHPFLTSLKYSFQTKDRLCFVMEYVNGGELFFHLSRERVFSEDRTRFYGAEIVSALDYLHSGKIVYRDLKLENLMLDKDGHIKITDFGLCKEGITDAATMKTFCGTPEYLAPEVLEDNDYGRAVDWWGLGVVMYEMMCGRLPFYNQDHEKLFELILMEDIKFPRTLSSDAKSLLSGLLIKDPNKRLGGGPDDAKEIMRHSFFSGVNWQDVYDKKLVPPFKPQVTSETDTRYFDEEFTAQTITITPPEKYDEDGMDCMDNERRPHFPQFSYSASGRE
T4 sequence (O96013 whole entry, the tested form may be a part): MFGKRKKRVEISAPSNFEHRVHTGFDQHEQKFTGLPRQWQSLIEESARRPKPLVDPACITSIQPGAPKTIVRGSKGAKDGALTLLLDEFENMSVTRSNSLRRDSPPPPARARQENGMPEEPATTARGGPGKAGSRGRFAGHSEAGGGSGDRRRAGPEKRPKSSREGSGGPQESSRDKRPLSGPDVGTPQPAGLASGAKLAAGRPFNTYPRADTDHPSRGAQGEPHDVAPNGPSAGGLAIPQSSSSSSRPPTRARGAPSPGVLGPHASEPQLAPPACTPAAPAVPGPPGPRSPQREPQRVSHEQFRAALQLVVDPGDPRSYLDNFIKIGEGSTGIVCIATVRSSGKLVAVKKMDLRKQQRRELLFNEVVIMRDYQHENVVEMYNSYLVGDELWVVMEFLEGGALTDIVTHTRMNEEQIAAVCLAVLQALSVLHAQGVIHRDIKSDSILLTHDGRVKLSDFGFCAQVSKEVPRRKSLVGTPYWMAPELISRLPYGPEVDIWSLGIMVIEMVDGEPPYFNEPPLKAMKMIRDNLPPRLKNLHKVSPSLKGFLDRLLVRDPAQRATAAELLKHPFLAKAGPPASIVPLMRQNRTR
Sequence of SRC Catalytic Domain (P12931 270-523 limits assumed): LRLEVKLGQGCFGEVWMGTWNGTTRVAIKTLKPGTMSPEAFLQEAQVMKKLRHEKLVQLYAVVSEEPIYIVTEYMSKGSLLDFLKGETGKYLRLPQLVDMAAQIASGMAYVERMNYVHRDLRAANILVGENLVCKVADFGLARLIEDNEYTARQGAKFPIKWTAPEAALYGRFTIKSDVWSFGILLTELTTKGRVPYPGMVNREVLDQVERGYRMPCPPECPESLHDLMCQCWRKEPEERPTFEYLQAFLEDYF
Sequence of SRC Catalytic Domain+SH2+SH3 (P12931 84-523 limits assumed): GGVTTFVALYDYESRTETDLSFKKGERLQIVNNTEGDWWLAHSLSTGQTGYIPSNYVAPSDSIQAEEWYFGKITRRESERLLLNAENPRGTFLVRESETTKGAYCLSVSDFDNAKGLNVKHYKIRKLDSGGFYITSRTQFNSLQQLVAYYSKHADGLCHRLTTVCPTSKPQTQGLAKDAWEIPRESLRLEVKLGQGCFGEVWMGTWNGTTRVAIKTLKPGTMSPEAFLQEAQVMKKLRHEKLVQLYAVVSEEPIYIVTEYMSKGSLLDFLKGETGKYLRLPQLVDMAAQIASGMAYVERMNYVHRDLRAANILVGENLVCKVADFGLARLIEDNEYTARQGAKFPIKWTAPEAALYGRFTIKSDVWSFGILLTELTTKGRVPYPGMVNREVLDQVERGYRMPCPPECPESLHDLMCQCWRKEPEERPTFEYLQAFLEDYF
T9 sequence (P07332 561-822 limits assumed): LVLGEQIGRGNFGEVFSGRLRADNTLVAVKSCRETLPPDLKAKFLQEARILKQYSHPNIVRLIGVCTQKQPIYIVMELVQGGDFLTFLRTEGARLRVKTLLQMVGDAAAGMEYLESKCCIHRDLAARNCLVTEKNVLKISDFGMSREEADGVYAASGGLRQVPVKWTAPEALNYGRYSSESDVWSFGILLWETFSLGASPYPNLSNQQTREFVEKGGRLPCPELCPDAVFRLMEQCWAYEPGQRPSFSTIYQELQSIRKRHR
T7 sequence (O96013 321-572 limits assumed): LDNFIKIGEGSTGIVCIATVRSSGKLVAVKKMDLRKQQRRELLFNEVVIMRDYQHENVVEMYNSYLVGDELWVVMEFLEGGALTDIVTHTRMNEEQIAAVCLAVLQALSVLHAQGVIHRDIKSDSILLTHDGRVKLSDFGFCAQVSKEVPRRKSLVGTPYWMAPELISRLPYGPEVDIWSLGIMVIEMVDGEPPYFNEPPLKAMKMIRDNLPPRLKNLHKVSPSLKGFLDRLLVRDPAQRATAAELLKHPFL
T8 sequence (O96017 220-486 limits assumed): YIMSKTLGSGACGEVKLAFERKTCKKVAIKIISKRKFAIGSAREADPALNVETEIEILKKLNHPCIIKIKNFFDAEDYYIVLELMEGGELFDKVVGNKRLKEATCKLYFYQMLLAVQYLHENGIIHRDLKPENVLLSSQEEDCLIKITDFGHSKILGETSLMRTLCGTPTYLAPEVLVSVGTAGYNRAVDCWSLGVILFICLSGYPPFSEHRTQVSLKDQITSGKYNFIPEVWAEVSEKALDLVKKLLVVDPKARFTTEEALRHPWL
T10 sequence (Q9P286 449-700 limits assumed): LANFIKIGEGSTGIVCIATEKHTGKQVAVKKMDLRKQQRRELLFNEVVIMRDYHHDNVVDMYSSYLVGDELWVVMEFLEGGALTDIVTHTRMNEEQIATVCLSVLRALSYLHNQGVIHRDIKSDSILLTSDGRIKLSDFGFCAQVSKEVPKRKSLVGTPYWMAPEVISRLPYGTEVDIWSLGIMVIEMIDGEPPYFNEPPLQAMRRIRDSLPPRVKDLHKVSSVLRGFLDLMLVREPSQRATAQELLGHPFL

Row | Compound | Melting temperature (Tm) shift (AKT3 Catalytic Domain) [degrees Celcius] | Melting temperature (Tm) shift [1] [degrees Celcius] | Melting temperature (Tm) shift (CDK2 + Cyclin A) [degrees Celcius] | Melting temperature (Tm) shift [2] [degrees Celcius] | Melting temperature (Tm) shift (DMPK Catalytic Domain) [degrees Celcius] | Melting temperature (Tm) shift (FAK2 Catalytic Domain) [degrees Celcius] | Melting temperature (Tm) shift (PAK4 Catalytic Domain) [degrees Celcius] | Melting temperature (Tm) shift (CHK2 Catalytic Domain) [degrees Celcius] | Melting temperature (Tm) shift (SRC Catalytic Domain) [degrees Celcius] | Melting temperature (Tm) shift (FES Catalytic Domain) [degrees Celcius] | Melting temperature (Tm) shift [3] [degrees Celcius] | Melting temperature (Tm) shift (PAK7 Catalytic Domain) [degrees Celcius] | Melting temperature (Tm) shift (CDK2 + Cyclin E) [degrees Celcius] | Melting temperature (Tm) shift (STK3 Catalytic Domain) [degrees Celcius] | Melting temperature (Tm) shift (FES Catalytic Domain+SH2) [degrees Celcius]
1 | CN(C)CCCn1cc(C2=C(c3c[nH]c4ccccc34)C(=O)NC2=O)c2ccccc21 [Bisindolylmaleimide I] | 0.4 | 2.9 | 1.8 | 0.6 | 3.9 | 0.5 | 1.0 | 4.6 | 0.4 | 0.6 | 0.0 | 0.6 | 0.9 | 1.0 | 0.6
2 | CCn1cnc2c(Nc3cccc(Cl)c3)nc(N[C@H]3CCCC[C@H]3N)nc21 [Cdk1 Inhibitor, CGP74514A] | 0.0 | 1.2 | 4.4 | 8.1 | 1.4 | 1.9 | 5.6 | 1.8 | 1.2 | 1.6 | 1.3 | 5.4 | 3.7 | 1.3 | 0.7
3 | CC(C)n1cnc2c(Nc3cccc(Cl)c3)nc(NCCO)nc21 [Compound 52] | 0.0 | 0.7 | 2.3 | 5.0 | 0.0 | 0.9 | 2.0 | 1.1 | 0.9 | 2.3 | 0.8 | 1.8 | 1.7 | 1.2 | 0.6
4 | Nc1cccc(-c2cc3c(Oc4cccc(O)c4)ncnc3[nH]2)c1 [GSK3b Inhibitor XII, TWS119] | 0.1 | 0.5 | 0.7 | 1.5 | 1.2 | 1.5 | 1.3 | 2.1 | 2.6 | 4.1 | 3.1 | 1.1 | 0.2 | 0.3 | 2.0
5 | O=C(c1ccc(Nc2nccc(-c3cc4ccccc4s3)n2)cc1)N1CCC(N2CCCC2)CC1 [IKK Inhibitor VII] | 0.2 | 1.2 | 0.7 | 0.5 | 1.2 | 1.8 | 1.7 | 1.9 | 0.6 | 3.3 | 0.5 | 1.8 | 0.5 | 0.7 | 1.4
6 | NC(=O)Nc1sc(-c2ccc(F)cc2)cc1C(N)=O [IKK-2 Inhibitor IV] | 0.1 | 1.6 | 0.7 | 2.4 | 1.8 | 1.2 | 1.5 | 3.6 | 1.2 | 1.5 | 1.0 | 1.3 | 0.4 | 2.8 | 0.5
7 | NC(=O)Nc1sc(-c2ccccc2)cc1C(N)=O [IKK-2 Inhibitor VI] | 0.0 | 2.0 | 0.8 | 2.5 | 1.4 | 1.4 | 1.3 | 3.6 | 1.3 | 1.8 | 1.1 | 1.3 | 0.2 | 2.4 | 0.7
